Source: ChEMBL document CHEMBL5727311, “Heterobicyclic N-aminophenyl-amides as inhibitors of histone deacetylase” (2019)

Target: Histone deacetylase 2 (Homo sapiens, UniProt Q92769)
Experiment: Reporter Displacement Assay: HDAC2 containing a C-terminal HIS-Tag (Proteros) and fluorescently-labeled anti-HIS-antibody are diluted in one vial in assay buffer 50 mM Tris, pH 8.0, 1 mM DTT, 150 mM NaCl, and 0.01% Tween20. Components are pre-incubated for 30 min, then a small volume of reporter probe (Proteros) is added from a highly concentrated stock and incubation is continued for another 30 min. Final concentrations after adding the reporter probe amount to 20 nM HDAC2, 4 nM antibody, and 180 nM probe.

Histone deacetylase 2, sequence (Q92769 whole entry): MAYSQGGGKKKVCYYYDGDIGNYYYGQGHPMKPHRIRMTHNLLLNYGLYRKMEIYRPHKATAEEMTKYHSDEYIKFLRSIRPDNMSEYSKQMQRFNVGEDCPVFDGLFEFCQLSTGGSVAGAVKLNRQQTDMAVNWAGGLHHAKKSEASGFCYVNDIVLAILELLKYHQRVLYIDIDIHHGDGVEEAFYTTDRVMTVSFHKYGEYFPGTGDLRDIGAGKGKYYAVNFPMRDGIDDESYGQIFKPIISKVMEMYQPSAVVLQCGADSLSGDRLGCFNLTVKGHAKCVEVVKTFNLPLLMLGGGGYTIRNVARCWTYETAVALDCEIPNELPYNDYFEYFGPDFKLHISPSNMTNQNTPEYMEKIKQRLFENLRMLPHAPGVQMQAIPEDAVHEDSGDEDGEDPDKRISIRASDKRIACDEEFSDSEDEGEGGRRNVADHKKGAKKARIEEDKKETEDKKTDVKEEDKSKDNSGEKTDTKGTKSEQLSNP

**Q.** `Nc1ccc(-c2ccncc2)cc1NC(=O)N1Cc2cncnc2C1` was tested. Which Kd did it give?
**A.** Its Kd is less than 0.1 µM.
